Activity calls are given as the source filed them. The calls are words filed in the database; no cut-off is given here.
Tests used:
[1] = target: T1, Sterol O-acyltransferase 1 (Homo sapiens) (UniProt P35610); experiment: Inhibition of ACAT at 1 mg/mL
T1 sequence (whole entry): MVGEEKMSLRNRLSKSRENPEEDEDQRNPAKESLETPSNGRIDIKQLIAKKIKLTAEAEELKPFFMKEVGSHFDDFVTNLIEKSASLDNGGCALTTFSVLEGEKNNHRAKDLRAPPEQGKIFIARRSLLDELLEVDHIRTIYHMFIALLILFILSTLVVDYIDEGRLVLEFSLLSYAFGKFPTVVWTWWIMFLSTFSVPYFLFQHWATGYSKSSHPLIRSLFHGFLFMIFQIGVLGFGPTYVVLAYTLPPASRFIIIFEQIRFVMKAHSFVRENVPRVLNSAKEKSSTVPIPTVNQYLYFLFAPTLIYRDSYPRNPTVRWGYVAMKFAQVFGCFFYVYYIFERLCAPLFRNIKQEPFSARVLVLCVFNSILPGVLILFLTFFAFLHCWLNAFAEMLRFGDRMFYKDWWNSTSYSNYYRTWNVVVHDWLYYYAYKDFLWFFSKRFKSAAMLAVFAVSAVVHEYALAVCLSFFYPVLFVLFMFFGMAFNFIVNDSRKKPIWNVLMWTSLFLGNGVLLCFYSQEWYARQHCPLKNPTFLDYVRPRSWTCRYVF

[2] = target: T1, Sterol O-acyltransferase 1 (Homo sapiens); experiment: Inhibition of ACAT at 0.05 mg/mL
[3] = target: T1, Sterol O-acyltransferase 1 (Homo sapiens); experiment: Inhibition of ACAT at 0.2 mg/mL

inhibition [1] | inhibition [2] | inhibition [3] | Activity [3] | Activity [1] | Activity [2] | SMILES
25.4% | 31.7% |  | inactive |  |  | C[C@@H]1O[C@@H](O[C@H]2[C@H](O[C@H]3CC[C@]4(C)[C@H]5CC=C6[C@@H]7CC(C)(C)CC[C@]7(C(=O)O[C@@H]7O[C@H](CO)[C@@H](O)[C@H](O)[C@H]7O)CC[C@@]6(C)[C@]5(C)CC[C@H]4C3(C)C)OC[C@H](O)[C@@H]2O[C@@H]2O[C@H](CO)[C@@H](O)[C@H](O)[C@H]2O)[C@H](O)[C@H](O)[C@H]1O
 |  |  | inactive | inactive | inactive | C[C@@H]1O[C@@H](O[C@H]2[C@H](O[C@H]3CC[C@]4(C)[C@H]5[C@@H](O)CC6=C7[C@]8(CC[C@](C)(OC8=O)[C@@]7(C)O)CC[C@@]6(C)[C@]5(C)CC[C@H]4C3(C)C)OC[C@H](O)[C@@H]2O[C@@H]2O[C@H](CO)[C@@H](O)[C@H](O)[C@H]2O[C@@H]2O[C@H](CO)[C@@H](O)[C@H](O)[C@H]2O)[C@H](O)[C@H](O)[C@H]1O
20% |  |  | inactive |  | inactive | C[C@@H]1O[C@@H](O[C@H]2[C@H](O[C@H]3CC[C@]4(C)[C@H]5CC=C6[C@@H]7[C@H](O)C(C)(C)CC[C@]7(C(=O)O[C@@H]7O[C@H](CO)[C@@H](O)[C@H](O)[C@H]7O)CC[C@@]6(C)[C@]5(C)CC[C@H]4C3(C)C)OC[C@H](O)[C@@H]2O[C@@H]2O[C@H](CO)[C@@H](O)[C@H](O)[C@H]2O)[C@H](O)[C@H](O)[C@H]1O
 |  |  | inactive | inactive | inactive | C[C@@H]1O[C@@H](O[C@H]2[C@H](O[C@H]3CC[C@]4(C)[C@H]5CC=C6[C@H]7[C@]8(CC[C@](C)(OC8=O)[C@@]7(C)O)CC[C@@]6(C)[C@]5(C)CC[C@H]4C3(C)C)OC[C@H](O)[C@@H]2O[C@@H]2O[C@H](CO)[C@@H](O)[C@H](O)[C@H]2O[C@@H]2O[C@H](CO)[C@@H](O)[C@H](O)[C@H]2O)[C@H](O)[C@H](O)[C@H]1O
 |  |  | inactive | inactive | inactive | C[C@@H]1O[C@@H](O[C@H]2[C@H](OC(=O)[C@]34CCC(C)(C)[C@@H](O)[C@H]3C3=CC[C@@H]5[C@@]6(C)CC[C@H](O[C@@H]7OC[C@H](O)[C@H](O[C@@H]8O[C@H](CO)[C@@H](O)[C@H](O)[C@H]8O)[C@H]7O[C@@H]7O[C@@H](C)[C@H](O)[C@@H](O)[C@H]7O)C(C)(C)[C@@H]6CC[C@@]5(C)[C@]3(C)CC4)O[C@H](CO)[C@@H](O)[C@@H]2O)[C@H](O)[C@H](O)[C@H]1O
72.8% |  |  | inactive |  | inactive | C[C@@H]1O[C@@H](O[C@H]2[C@H](O[C@H]3CC[C@]4(C)[C@H]5CC=C6[C@H]7[C@](C(=O)O[C@@H]8O[C@H](CO)[C@@H](O)[C@H](O)[C@H]8O)(CC[C@@H](C)[C@@]7(C)O)CC[C@@]6(C)[C@]5(C)CC[C@H]4C3(C)C)OC[C@H](O)[C@@H]2O)[C@H](O)[C@H](O)[C@H]1O
 |  | 10.6% |  | inactive | inactive | C[C@@H]1O[C@@H](O[C@H]2[C@H](OC(=O)[C@]34CC[C@@H](C)[C@@](C)(O)[C@H]3C3=CC[C@@H]5[C@@]6(C)CC[C@H](O[C@@H]7OC[C@H](O)[C@H](O[C@@H]8O[C@H](CO)[C@@H](O)[C@H](O)[C@H]8O)[C@H]7O[C@@H]7O[C@@H](C)[C@H](O)[C@@H](O)[C@H]7O)C(C)(C)[C@@H]6CC[C@@]5(C)[C@]3(C)CC4)O[C@H](CO)[C@@H](O)[C@@H]2O)[C@H](O)[C@H](O)[C@H]1O
60% |  |  | inactive |  |  | C=C1CC[C@]2(C(=O)O[C@@H]3O[C@H](CO)[C@@H](O)[C@H](O)[C@H]3O[C@@H]3O[C@@H](C)[C@H](O)[C@@H](O)[C@H]3O)CC[C@]3(C)C(=CC[C@@H]4[C@@]5(C)CC[C@H](O[C@@H]6OC[C@H](O)[C@H](O[C@@H]7O[C@H](CO)[C@@H](O)[C@H](O)[C@H]7O[C@@H]7O[C@H](CO)[C@@H](O)[C@H](O)[C@H]7O)[C@H]6O[C@@H]6O[C@@H](C)[C@H](O)[C@@H](O)[C@H]6O)C(C)(C)[C@@H]5CC[C@]43C)[C@@H]2[C@]1(C)O
31.8% | 10.9% | 10.3% |  |  |  | C[C@@H]1O[C@@H](O[C@H]2[C@H](O[C@H]3CC[C@]4(C)[C@H]5CC=C6[C@H]7[C@](C(=O)O[C@@H]8O[C@H](CO)[C@@H](O)[C@H](O)[C@H]8O)(CC[C@@H](C)[C@@]7(C)O)CC[C@@]6(C)[C@]5(C)CC[C@H]4C3(C)C)OC[C@H](O)[C@@H]2O[C@@H]2O[C@H](CO)[C@@H](O)[C@H](O)[C@H]2O)[C@H](O)[C@H](O)[C@H]1O
 |  |  | inactive | inactive |  | C[C@@H]1CC[C@]2(C(=O)O[C@@H]3O[C@H](CO)[C@@H](O)[C@H](O)[C@H]3O)CC[C@]3(C)C(=CC[C@@H]4[C@@]5(C)CC[C@H](O[C@@H]6OC[C@H](O)[C@H](O[C@@H]7O[C@H](CO)[C@@H](O)[C@H](O)[C@H]7O)[C@H]6O)C(C)(C)[C@@H]5CC[C@]43C)[C@@H]2[C@]1(C)O

Further lines, the molecule ahead of its results:

SMILES | inhibition [1] | inhibition [2] | inhibition [3] | Activity [3] | Activity [1] | Activity [2]
CC1(C)CC[C@]2(C(=O)O[C@@H]3O[C@H](CO)[C@@H](O)[C@H](O)[C@H]3O)CC[C@]3(C)C(=CC[C@@H]4[C@@]5(C)CC[C@H](O[C@H]6O[C@@H](C(=O)O)[C@H](O)[C@@H](O)[C@@H]6O)[C@@](C)(CO)[C@@H]5CC[C@]43C)[C@@H]2C1 | 64.3% | 15.7% | 36.5% |  |  | 
C[C@@H]1CC[C@]2(C(=O)O[C@@H]3O[C@H](CO)[C@@H](O)[C@H](O)[C@H]3O)CC[C@]3(C)C(=CC[C@@H]4[C@@]5(C)CC[C@H](O[C@H]6O[C@@H](C(=O)O)[C@H](O)[C@@H](O)[C@@H]6O)C(C)(C)[C@@H]5CC[C@]43C)[C@@H]2[C@]1(C)O | 12.5% |  |  | inactive |  | 
CC1(C)[C@@H](O[C@@H]2O[C@H](CO)[C@@H](O)[C@H](O)[C@H]2O[C@@H]2O[C@H](CO)[C@@H](O)[C@H](O)[C@H]2O)CC[C@]2(C)[C@H]3C[C@@H](O)C4=C5[C@]6(CC[C@](C)(OC6=O)[C@@]5(C)O)CC[C@@]4(C)[C@]3(C)CC[C@@H]12 | 43% |  |  | inactive |  | inactive
C[C@@H]1CC[C@]2(C(=O)O[C@@H]3O[C@H](CO)[C@@H](O)[C@H](O)[C@H]3O)CC[C@]3(C)C(=CC[C@@H]4[C@@]5(C)CC[C@H](O[C@@H]6OC[C@H](O)[C@H](O)[C@H]6O)[C@@](C)(CO)[C@@H]5CC[C@]43C)[C@@H]2[C@]1(C)O | 18.9% |  |  | inactive |  | inactive
C[C@H]1[C@H](C)CC[C@]2(C(=O)O[C@@H]3O[C@H](CO)[C@@H](O)[C@H](O)[C@H]3O)CC[C@]3(C)C(=CC[C@@H]4[C@@]5(C)C[C@@H](O)[C@H](O[C@@H]6OC[C@H](O)[C@H](O)[C@H]6O)[C@@](C)(CO)[C@@H]5CC[C@]43C)[C@H]12 | 35.5% |  |  | inactive |  | inactive
CC1(C)[C@@H](O[C@@H]2OC[C@H](O)[C@H](O)[C@H]2O[C@@H]2O[C@H](CO)[C@@H](O)[C@H](O)[C@H]2O)CC[C@]2(C)[C@H]3C[C@@H](O)C4=C5[C@]6(CC[C@](C)(OC6=O)[C@@]5(C)O)CC[C@@]4(C)[C@]3(C)CC[C@@H]12 | 24.1% |  |  | inactive |  | 
C[C@H]1[C@H](C)CC[C@]2(C(=O)O[C@@H]3O[C@H](CO)[C@@H](O)[C@H](O)[C@H]3O)CC[C@]3(C)C(=CC[C@@H]4[C@@]5(C)CC[C@H](O[C@H]6O[C@@H](C(=O)O)[C@H](O)[C@@H](O)[C@@H]6O)[C@@](C)(CO)[C@@H]5CC[C@]43C)[C@H]12 | 63.9% |  | 29% |  |  | 

From ChEMBL document CHEMBL1144087, “Triterpenoid saponins from Ilex kudincha” (J Nat Prod, 1999)
